Laboratory results taken from publication PMC3463759 (Clinical cancer research : an official journal of the …, 2012).
Where “and” joins values, the source holds several entries; their conditions need not be identical. Identical values can stand only once. Like-named read-outs stand apart in the source and are kept apart here.

Columns and labels:
[1] = cited from earlier work
[2] = system: advanced or recurrent epithelial ovarian, peritoneal, or tubal cancer; experiment: Response
[3] = Phase I 3+3 dose escalation: DLT, MTD, recommended phase II dose
[4] = system: solid tumors; conditions: single agent dasatinib; cited from earlier work
[5] = system: recurrent or persistent ovarian cancer; conditions: single agent 100 mg daily; ref Personal communication, Dr. Russell J. Schilder; cited from earlier work
[6] = Pharmacokinetics of dasatinib in plasma; conditions: for AUC: 100 mg, AUC(TAU), TAU = 24 h
[7] = paclitaxel and dasatinib, Cycle 2 Day 1, N=18
[8] = with paclitaxel (Cycle 2 Day 1) vs dasatinib alone (Cycle 1 Day 15)
[9] = all patients (N=20), all cycles
[10] = cohort 1 (dasatinib 100 mg), n patients
[11] = cohort 2 (dasatinib 120 mg), n patients
[12] = cohort 3 (dasatinib 150 mg), n patients
[13] = dasatinib 100 mg qd + paclitaxel + carboplatin, N=6, all cycles, patients (%)
[14] = dasatinib 120 mg qd + paclitaxel + carboplatin, N=3, all cycles, patients (%)

Cc1nc(Nc2ncc(C(=O)Nc3c(C)cccc3Cl)s2)cc(N2CCN(CCO)CC2)n1 [dasatinib, N-(2-chloro-6-methyl-phenyl)-2-(6-(4-(2-hydroxyethyl)-piperazin-1-yl)-2-methylpyrimidin-4-ylamino)thiazole-5-carboxamide]
incidence of effusions ([1]; 140 mg daily): 9%
severe pericardial effusions [1]: 1%
severe pleural effusions [1]: 5%
grade 3 to 4 hematologic toxicity ([1]; patients with solid tumors): 3–6%
complete responses (CR) ([2]; 3/20): 15%
partial responses (PR) ([2]; 5/20): 25%
PFS6-month actuarial estimate ([2]; 95% confidence interval 69–100%): 86%
median OS ([2]; in vivo): 16.2 months
median PFS ([2]; in vivo): 7.8 months
DLT observed ([3]; dasatinib 120 mg daily, paclitaxel 175 mg/m2, carboplatin AUC 6): no DLTs
DLT observed ([3]; dasatinib 150 mg daily, paclitaxel 175 mg/m2, carboplatin AUC 6, first cycle): no DLTs
grade 4 neutropenia at 2 weeks ([3]; first three patients of the dasatinib 150 mg daily cohort): all three patients
predefined MTD ([3]; in combination with paclitaxel and carboplatin, doses up to 150 mg daily): not reached
best clinical response: PRs [4]: 1–5%
best clinical response: stable disease [4]: 5–23%
Grade 3 and 4 neutropenia and thrombocytopenia [5]: not observed
cases of grade 3 anemia [5]: 1
median PFS [5]: 2.1 months
responses [5]: no responses
T-HALF, Mean (SD) ([6]; dasatinib alone, Cycle 1 Day 15, N=14): 6.17 h and 6.17 (2.32) h
Tmax ([6]; human, plasma, oral): 2 h
AUC ([6]; human, plasma, oral, Geo Mean (%CV), dasatinib alone, Cycle 1 Day 15, N=14, dose-normalized to 100 mg): 478 ng·h/mL
AUC ([6]; human, plasma, oral, Geo Mean (%CV), paclitaxel and dasatinib, Cycle 2 Day 1, N=18, dose-normalized to 100 mg): 415 ng·h/mL
Cmax ([6]; human, plasma, oral, Cmax, Geo Mean (%CV), paclitaxel and dasatinib, Cycle 2 Day 1, N=18, dose-normalized to 100 mg): 78 ng/mL
inter-individual variability (%CV) for exposure ([6]; in vivo): 40–90%
T-HALF, Mean (SD) [6, 7]: 5.27 h and 5.27 (1.26) h
Tmax, Median (min, max) [6, 7]: 2.00 (0.50, 6.00) h
reduction of geometric mean AUC(0-T) [6, 8]: 11%
reduction of geometric mean AUC(TAU) [6, 8]: 13%
dose modifications secondary to hematologic toxicity (46/95 dose modifications): 48%
patients reporting fatigue (any grade) (all patients): Ninety
fatigue grade 3 [9]: 10%
thrombocytopenia grade 3–4 [9]: 35%
patients requiring dose modifications (cohort 1 (dasatinib 100 mg)): 100%
urinary tract infection (cohort 1 (dasatinib 100 mg)): 1
grade 1 hyponatremia (cohort 1 (dasatinib 100 mg), n): 1
grade 1 sinus pain (cohort 1 (dasatinib 100 mg), n): 9 Pain toxicity also included the following: (1) grade 2 neuralgia (n=1), grade 1 sinus pain (n=1), and grade 1 throat pain (n=1) in cohort 1; and (2) grade 1 back pain (n=1) and grade 1 extremity pain (n=1) in cohort 2.
grade 1 throat pain (cohort 1 (dasatinib 100 mg), n): 9 Pain toxicity also included the following: (1) grade 2 neuralgia (n=1), grade 1 sinus pain (n=1), and grade 1 throat pain (n=1) in cohort 1; and (2) grade 1 back pain (n=1) and grade 1 extremity pain (n=1) in cohort 2.
grade 2 neuralgia (cohort 1 (dasatinib 100 mg), n): 9 Pain toxicity also included the following: (1) grade 2 neuralgia (n=1), grade 1 sinus pain (n=1), and grade 1 throat pain (n=1) in cohort 1; and (2) grade 1 back pain (n=1) and grade 1 extremity pain (n=1) in cohort 2.
pulmonary toxicity, grade 1 other unspecified etiology (cohort 1 (dasatinib 100 mg), n): 10 Pulmonary toxicity also included the following: (1) grade 1 other unspecified etiology (n=1) in cohort 1; and (2) grade 2 hypoxia (n=1 in cohort 2.
gastrointestinal toxicity, other unspecified etiologies, grade 1 [10]: 5 Gastrointestinal toxicity included other unspecified etiologies: (1) grade 1 (n=1) and grade 2 (n=1) in cohort 1; (2) grade 1 (n=1) in cohort 2; and (3) grade 1 (n=1) in cohort 3.
gastrointestinal toxicity, other unspecified etiologies, grade 2 [10]: 5 Gastrointestinal toxicity included other unspecified etiologies: (1) grade 1 (n=1) and grade 2 (n=1) in cohort 1; (2) grade 1 (n=1) in cohort 2; and (3) grade 1 (n=1) in cohort 3.
grade 1 dehydration [10]: 4 Gastrointestinal toxicity also included the following: (1) grade 1 dehydration (n=1) in cohort 1; (2) grade 1 distension (n=1), grade 1 xerostomia (n=1), grade 1 gastritis (n=1) in cohort 2; and (3) grade 1 xerostomia (n=1) in cohort 3.
grade 1 joint-function toxicity [10]: 1 Additional toxicities in cohort 1 included musculoskeletal toxicity characterized by grade 1 joint-function toxicity (n=1) and grade 1 muscular complaints (n=1). The grade 3 myalgia is reported under pain.
grade 1 muscular complaints [10]: 1 Additional toxicities in cohort 1 included musculoskeletal toxicity characterized by grade 1 joint-function toxicity (n=1) and grade 1 muscular complaints (n=1). The grade 3 myalgia is reported under pain.
cases of grade 1 somnolence/depressed level of consciousness (cohort 2 (dasatinib 120 mg)): 8 Neurologic toxicity included one case of grade 1 somnolence/depressed level of consciousness in cohort 2.
patients requiring dose modifications (cohort 2 (dasatinib 120 mg)): 67%
grade 1 back pain (cohort 2 (dasatinib 120 mg), n): 9 Pain toxicity also included the following: (1) grade 2 neuralgia (n=1), grade 1 sinus pain (n=1), and grade 1 throat pain (n=1) in cohort 1; and (2) grade 1 back pain (n=1) and grade 1 extremity pain (n=1) in cohort 2.
grade 1 extremity pain (cohort 2 (dasatinib 120 mg), n): 9 Pain toxicity also included the following: (1) grade 2 neuralgia (n=1), grade 1 sinus pain (n=1), and grade 1 throat pain (n=1) in cohort 1; and (2) grade 1 back pain (n=1) and grade 1 extremity pain (n=1) in cohort 2.
grade 1 hypokalemia (cohort 2 (dasatinib 120 mg), n): 1
grade 1 hypomagnesemia (cohort 2 (dasatinib 120 mg), n): 1
grade 2 hypoxia (cohort 2 (dasatinib 120 mg), n): 10 Pulmonary toxicity also included the following: (1) grade 1 other unspecified etiology (n=1) in cohort 1; and (2) grade 2 hypoxia (n=1 in cohort 2.
gastrointestinal toxicity, other unspecified etiologies, grade 1 [11]: 5 Gastrointestinal toxicity included other unspecified etiologies: (1) grade 1 (n=1) and grade 2 (n=1) in cohort 1; (2) grade 1 (n=1) in cohort 2; and (3) grade 1 (n=1) in cohort 3.
grade 1 distension [11]: 4 Gastrointestinal toxicity also included the following: (1) grade 1 dehydration (n=1) in cohort 1; (2) grade 1 distension (n=1), grade 1 xerostomia (n=1), grade 1 gastritis (n=1) in cohort 2; and (3) grade 1 xerostomia (n=1) in cohort 3.
grade 1 gastritis [11]: 4 Gastrointestinal toxicity also included the following: (1) grade 1 dehydration (n=1) in cohort 1; (2) grade 1 distension (n=1), grade 1 xerostomia (n=1), grade 1 gastritis (n=1) in cohort 2; and (3) grade 1 xerostomia (n=1) in cohort 3.
grade 1 xerostomia [11]: 4 Gastrointestinal toxicity also included the following: (1) grade 1 dehydration (n=1) in cohort 1; (2) grade 1 distension (n=1), grade 1 xerostomia (n=1), grade 1 gastritis (n=1) in cohort 2; and (3) grade 1 xerostomia (n=1) in cohort 3.
patients requiring dose modifications (cohort 3 (dasatinib 150 mg)): 91%
grade 1 elevated alkaline phosphatase (cohort 3 (dasatinib 150 mg), n): 7 Metabolic toxicities also included the following: grade 1 elevated transaminases (n=1), grade 1 elevated alkaline phosphatase (n=1), and proteinuria (grade 1 (n=1), grade 2 (n=1)) in cohort 3.
grade 1 elevated transaminases (cohort 3 (dasatinib 150 mg), n): 7 Metabolic toxicities also included the following: grade 1 elevated transaminases (n=1), grade 1 elevated alkaline phosphatase (n=1), and proteinuria (grade 1 (n=1), grade 2 (n=1)) in cohort 3.
grade 1 hyponatremia (cohort 3 (dasatinib 150 mg), n): 2
grade 2 hypocalcemia (cohort 3 (dasatinib 150 mg), n): 1
grade 3 hypercalcemia (cohort 3 (dasatinib 150 mg), n): 1
hypokalemia grade 1 (cohort 3 (dasatinib 150 mg), n): 3
hypokalemia grade 4 (cohort 3 (dasatinib 150 mg), n): 1
hypomagnesemia grade 1 (cohort 3 (dasatinib 150 mg), n): 2
hypomagnesemia grade 2 (cohort 3 (dasatinib 150 mg), n): 1
hypophosphatemia grade 2 (cohort 3 (dasatinib 150 mg), n): 2
hypophosphatemia grade 3 (cohort 3 (dasatinib 150 mg), n): 1
proteinuria grade 1 (cohort 3 (dasatinib 150 mg), n): 7 Metabolic toxicities also included the following: grade 1 elevated transaminases (n=1), grade 1 elevated alkaline phosphatase (n=1), and proteinuria (grade 1 (n=1), grade 2 (n=1)) in cohort 3.
proteinuria grade 2 (cohort 3 (dasatinib 150 mg), n): 7 Metabolic toxicities also included the following: grade 1 elevated transaminases (n=1), grade 1 elevated alkaline phosphatase (n=1), and proteinuria (grade 1 (n=1), grade 2 (n=1)) in cohort 3.
gastrointestinal toxicity, other unspecified etiologies, grade 1 [12]: 5 Gastrointestinal toxicity included other unspecified etiologies: (1) grade 1 (n=1) and grade 2 (n=1) in cohort 1; (2) grade 1 (n=1) in cohort 2; and (3) grade 1 (n=1) in cohort 3.
grade 1 epitaxis [12]: 1
grade 1 facial and neck edema [12]: 1
grade 1 weight loss [12]: 2
grade 1 xerostomia [12]: 4 Gastrointestinal toxicity also included the following: (1) grade 1 dehydration (n=1) in cohort 1; (2) grade 1 distension (n=1), grade 1 xerostomia (n=1), grade 1 gastritis (n=1) in cohort 2; and (3) grade 1 xerostomia (n=1) in cohort 3.
grade 3 hypotension [12]: 1
Allergy, Grade 3 [13]: 1 (17)
Dermatogic: Alopecia, Grade 2 [13]: 6 (100)
Dermatogic: Pruritis, Grade 2 [13]: 1 (17)
Gastrointestinal: Anorexia, Grade 1 [13]: 2 (33)
Gastrointestinal: Mucositis/Stomatitis, Grade 1 [13]: 2 (33)
Neurologic: Ocular, Grade 1 [13]: 1 (17)
Pain: Joint, Grade 2 [13]: 2 (33)
Pain: Muscle, Grade 2 [13]: 1 (17)
Thrombocytopenia, Grade 1 [13]: 2 (33)
Thrombocytopenia, Grade 2 [13]: 1 (17)
Thrombocytopenia, Grade 3 [13]: 1 (17)
Thrombocytopenia, Grade 4 [13]: 1 (17)
fatigue grade 3 [13]: 2 (33)
Allergy, Grade 3 [14]: 1 (33)
Dermatogic: Alopecia, Grade 1 [14]: 1 (33)
Dermatogic: Alopecia, Grade 2 [14]: 2 (67)
Gastrointestinal: Anorexia, Grade 1 [14]: 3 (100)
Gastrointestinal: Mucositis/Stomatitis, Grade 1 [14]: 1 (33)
Neurologic: Ocular, Grade 1 [14]: 1 (33)
Pain: Joint, Grade 2 [14]: 1 (33)
Thrombocytopenia, Grade 3 [14]: 1 (33)
clinically-significant pleural effusions, ascites, or cardiac issues (in vivo): not observed
other infections (in vivo): Two
patient deaths during the treatment phase (in vivo): no patient deaths
reports of infection associated with febrile neutropenia (in vivo): one
